Results from paper PMC9786170, “The Pharmacological Potential of Novel Melittin Variants from the Honeybee and Solitary Bees against Inflammation and Cancer” (Toxins, 2022).
Entries after “also recorded” stand apart in the source; their conditions may differ.

Experiments:
RAW264.7 cells [1] = test: NO inhibition assay (LPS-stimulated, Griess); format: cell-based, murine; details: RAW264.7, peptide 30 min, then 100 ng/mL LPS 24 h, n = 3
Experimental: Figure 4 Influence of melittin derivates on inflammation-associated cell functions. (A,B) For the NO induction assay (A), RAW264.7 cells were treated with melittin peptides in the indicated concentrations for 24 h. For the NO inhibition assay (B), RAW264.7 cells were pretreated with melittin peptides in the indicated concentrations for 30 min and then stimulated with 100 ng/mL LPS for 24 h. NO was detected in the supernatant using the Griess method. […] THP-1 cell adhesion under static conditions. HUVECs were grown to confluence, preincubated with bee venoms for 30 min, and activated with TNF (10 ng/mL) for 24 h. For the leukocyte adhesion assay, untreated THP-1 cells were stained with CellTracker Green and were allowed to adhere to the treated HUVECs for 5 min. The adhesion of leukocytes onto Ecs was quantified by fluorescence measurements for all cell adhesion experiments. Data are expressed as means ± SEM, (A,B) n = 3, (C) n = 2. * p ≤ 0.05 vs. TNF (positive) control.
2 × 10^4 RAW264.7 macrophages/well were plated in a 96-well plate and cultured for 24 h at 37 °C. To investigate if the melittin peptides induce nitrogen oxide (NO) synthesis, the melittin peptides, control (DMSO), and positive control (100 ng/mL lipopolysaccharide (LPS)) were added. To evaluate the effect of melittin peptides on inhibiting NO synthesis, the cells were pre-incubated with peptides or control (DMSO) for 30 min before 100 ng/mL LPS were added. After 24 h supernatants were collected and stored at −80 °C.
NO was determined with the Griess method. Briefly, for the standard curve, different concentrations of sodium nitrite (0–50 µM) were prepared in the medium. A total of 80 µL cell supernatant or standard sample were added to a 96-well microplate and subsequently, 20 µL sulfanilamide solution (120 mg sulfanilamide in 30 mL 1 N hydrochloric acid) and 20 µL naphthylenediamine solution (180 mg N-(1-naphthyl)ethylenediamine dihydrochloride in 30 mL water) were added. After 15 min of incubation, the absorbance (540 nm) was measured with the EnSpire Plate Reader (PerkinElmer, Waltham, MA, USA). For the induction assay, the NO levels of the melittin peptides-treated samples were related to the DMSO-treated sample. For the inhibition assay, the NO levels of the melittin peptides-treated cells were correlated with the LPS-treated samples.

HEK293T cells [2] = test: Ca2+ inhibition assay (ionomycin-stimulated, Fluo-8); format: cell-based, human; details: Fluo-8, peptide 30 min, then 5 µM ionomycin, n = 4
Experimental: (§1) Figure 2 Melittin derivates influence cellular Ca^2+ and IP1 levels. (A) For the Ca^2+ induction assay, Fluo-8 pretreated HEK293-T cells were incubated with melittin derivates in the indicated concentrations and the fluorescence was detected. (B) For the Ca^2+ inhibition assay, Fluo-8 pretreated HEK293-T cells were incubated with peptides in the indicated concentrations for 30 min, stimulated with 5 µM ionomycin, and the fluorescence was detected. (C) IP3 has a short lifetime and is rapidly degraded to IP1; therefore, IP1 was determined. For the IP1/IP3 induction assay (left panel), HEK293T cells were incubated with melittin peptides in the indicated concentration for 2 h, a detection reagent was added, and the fluorescence resonance energy transfer signal was detected. For the IP1/IP3 inhibition assay (right panel), HEK293T cells were incubated with melittin peptides in the indicated concentration for 30 min and stimulated with 20 µM ionomycin for 1.5 h. After the addition of the detection reagent, the fluorescence resonance energy transfer signal was detected. Data are expressed as mean ± SEM. (A, B, C (left)) n = 4, (C (right)) n = 3. * p ≤ 0.05 versus control.
(§2) For analysis, 5 × 10^4 HEK293 cells or 2 × 10^4 MDA-MB-231 cells were seeded in a 96-well poly-D-lysine plate, incubated at 37 °C for 24 h, and treated with 4 µM Fluo-8-AM in HBSS for 1 h at 37 °C. After 1 h, the Fluo-8/HBSS was replaced by 100 µL HBSS. Five images per second were taken using an ImageXpress Micro Confocal High Content Imaging System (Molecular Device, San Jose, CA, USA). Melittin peptides (0.25, 2.5, and 25 µg/mL), DMSO (negative control), or 5 µM ionomycin (Sigma Aldrich; Taufkirchen, Germany) (positive control) were added to the cells. For the next 20 s, an image was obtained every second. For the inhibition assay, the peptide-treated samples (30 min) were treated with 5 µM ionomycin and for the next 20 s, an image was obtained every second. The data were analyzed with the MetaXpress Software Version 6 (Molecular Devices, San Jose, CA, USA). A threshold of fluorescence intensity was defined using cells before treatment, and all cells with a fluorescence signal above the threshold level were counted. For the induction assay, the number of cells above the threshold in the toxin-treated samples were related to the cells in the DMSO-treated sample. For the inhibition assay, the number of cells above the threshold in the melittin-treated samples were related to the cells in the ionomycin-treated sample.

HEK293T cells [3] = test: Ca2+ induction assay (Fluo-8); format: cell-based, human; details: Fluo-8, 0.25, 2.5, 25 µg/mL, partly already at 2.5 µg/mL, n = 4
Experimental: as §1, §2

RAW264.7 cells [4] = test: Cell viability assay (WST-8/Orangu formazan) in RAW264.7 cells; format: cell-based, murine
Experimental: Figure 1 Toxicity characterization of cells treated with melittin peptides. (A,B) For the viability assay, RAW264.7 (A) or HEK293T (B) cells were treated with bee venom compounds in the indicated concentrations for 24 h. Cells were incubated with WST-8 and the formed formazan was detected by absorbance measurements. (C) For the proliferation assay, HMEC-1 cells were grown in low density and treated after 24 h with the indicated peptide (25 µg/mL) for 72 h. Cells were stained with crystal violet solution. The amount of DNA-bound crystal violet was detected by absorbance measurements. (D) The number of sub-diploidic cells was determined by staining with propidium iodide (PI) and quantified to assess apoptosis of HUVECs. Data are expressed as mean ± SEM. (A) n = 3, (B) n = 4, (C) n = 2–3, (D) n = 2. * p ≤ 0.05 versus control.
For assessing the cytotoxicity of all peptides, various cell types and assays were utilized. To determine the cell viability of HEK293T and RAW246.7 cells, the Orangu^TM assay (Cell Guidance Systems Ltd., Cambridge, UK) was used, as previously described. 2 × 10^5 HEK293T or 2 × 10^5 RAW246.7 were seeded in 96-well plates. Different concentrations (0, 0.25, 2.5, 25 µg/mL) of melittin peptides or vehicle (DMSO) were added. After 24 h of incubation at 37 °C and 5% CO2, 10 µL of Orangu^TM cell counting solution was added and incubated for 60 min. After incubation, absorbance was measured at a wavelength of 450 nm with a reference at 650 nm at an EnSpire 2300 Multimode Plate Reader (Perkin Elmer, Lübeck, Germany). To calculate cell viability, the absorbance of vehicle-treated cells was set to 100%, and the melittin derivates-treated samples were correlated to them.

Substance	inhibition of LPS-induced NO synthesis (RAW264.7 cells [1])	inhibition of ionomycin-induced Ca2+ release (HEK293T cells [2])	induction of Ca2+ release (HEK293T cells [3])	reduction of cell viability (RAW264.7 cells [4]; RAW264.7, 25 µg/mL, 24 h, WST-8 formazan absorbance, vehicle = 100%, n = 3)	cytotoxicity in RAW264.7 (RAW264.7 cells [4]; RAW264.7 macrophage, Discussion)
codesane	prevented LPS-induced NO synthesis in a concentration-dependent manner	inhibited the ionomycin-induced Ca^2+ release; also recorded: inhibit Ca^2+ levels	without inducing Ca^2+ release	–	–
halictin	–	inhibit Ca^2+ levels	–	–	–
halictin [Hal2]	–	inhibited the ionomycin-induced Ca^2+ release	without inducing Ca^2+ release	–	–
melectin	prevented LPS-induced NO synthesis in a concentration-dependent manner	–	induced a significant release of Ca^2+; also recorded: induce Ca^2+ release	–	–
osmin	prevented LPS-induced NO synthesis in a concentration-dependent manner	–	induced a significant release of Ca^2+; also recorded: induce Ca^2+ release	–	–
xylopin [Xac1]	–	inhibit Ca^2+ levels	–	–	–
xylopin [Xac3]	prevented LPS-induced NO synthesis in a concentration-dependent manner; also recorded: inhibit NO synthesis	–	induced a significant release of Ca^2+	more than 90%	induced significant cytotoxicity
